Paper PMC6749586, “Design, Synthesis, and Anticancer Effect Studies of Iridium(III) Polypyridyl Complexes against SGC-7901 Cells” (Molecules, 2019)
Read-outs that look alike come from different tables or passages of the source.

How the values were obtained:
A549 cells = assay: MTT cytotoxicity assay, A549; type: cell-based, human; conditions: read-out: IC50 toward A549
Text: (§1) The lung carcinoma cell line A549, the cervical cancer cell line HeLa, the esophageal cancer cell line Eca-109, and the human hepatocellular carcinoma cell line BEL-7402 were purchased from the cell bank of the Cell Institute of Sinica Academia Shanghai (Shanghai, China). The gastric adenocarcinoma cell line SGC-7901, the hepatocellular carcinoma cell line HepG2, and the mouse embryonic fibroblast cell line NIH 3T3 were obtained from the Experimental Animal Center of Sun Yat-Sen University (Guangzhou, China). The BEL-7402 and SGC-7901 cell lines were cultured in Roswell Park Memorial Institute Medium (RPMI-1640); and A549, Eca-109, HepG2, and NIH 3T3 cells were grown in Dulbecco’s Modified Eagle’s Medium (DMEM), including 10% fetal bovine serum (FBS), 100 units mL^−1 penicillin/streptomycin mixture, and 2.0 g/L of NaHCO3. Cell passage experiments were performed with trypsin every 2 days to maintain exponential growth. All cells were cultured until they reached logarithmic growth phase, unless specifically noted.
(§2) Cell cytotoxicity following treatment with the iridium(III) complexes was detected by MTT assay. The cells were seeded into 96-well micro-assay culture plates (1 × 10^4 cells per well) and grown overnight in a 5% CO2 incubator at 37 °C. Then, the cell lines were treated with gradient concentrations of the complexes 1–3. After treatment for 48 h, MTT solution (5 mg mL^−1, […]) dissolved in phosphate buffer was added to each well and the cells were further cultured for 4 h. Upon completion of incubation, the solvent was removed and 100 µL/well of buffer containing dimethylformamide (50%) and sodium dodecyl sulfate (20%) was added to dissolve the produced formazan. The absorbance of each well was measured with a microplate reader at a wavelength of 490 nm. The IC50 values were determined from the plots of viability versus concentration used to treat the cells. Three independent experiments were performed to obtain the mean values.

SGC-7901 cells [1] = assay: MTT cytotoxicity assay, SGC-7901; type: cell-based, human; conditions: read-out: IC50 toward SGC-7901
Text: as §1, §2

Eca-109 cells = assay: MTT cytotoxicity assay, Eca-109; type: cell-based, human; conditions: 48 h, read-out: IC50 toward Eca-109
Text: The lung carcinoma cell line A549, the cervical cancer cell line HeLa, the esophageal cancer cell line Eca-109, and the human hepatocellular carcinoma cell line BEL-7402 were purchased from the cell bank of the Cell Institute of Sinica Academia Shanghai (Shanghai, China). The gastric adenocarcinoma cell line SGC-7901, the hepatocellular carcinoma cell line HepG2, and the mouse embryonic fibroblast cell line NIH 3T3 were obtained from the Experimental Animal Center of Sun Yat-Sen University (Guangzhou, China). […] Cell passage experiments were performed with trypsin every 2 days to maintain exponential growth. All cells were cultured until they reached logarithmic growth phase, unless specifically noted. Cell cytotoxicity following treatment with the iridium(III) complexes was detected by MTT assay. The cells were seeded into 96-well micro-assay culture plates (1 × 10^4 cells per well) and grown overnight in a 5% CO2 incubator at 37 °C. Then, the cell lines were treated with gradient concentrations of the complexes 1–3. After treatment for 48 h, MTT solution (5 mg mL^−1, […]) dissolved in phosphate buffer was added to each well and the cells were further cultured for 4 h. […] The absorbance of each well was measured with a microplate reader at a wavelength of 490 nm. The IC50 values were determined from the plots of viability versus concentration used to treat the cells. Three independent experiments were performed to obtain the mean values.

BEL-7402 cells = assay: MTT cytotoxicity assay, BEL-7402; type: cell-based, human; conditions: read-out: IC50 toward BEL-7402
Text: as §1, §2

HepG2 cells = assay: MTT cytotoxicity assay, HepG2; type: cell-based, human; conditions: read-out: IC50 toward HepG2
Text: as §1, §2

HeLa cells = assay: MTT cytotoxicity assay, HeLa; type: cell-based, human; conditions: 48 h, read-out: IC50 toward HeLa
Text: as §1, §2

NIH 3T3 cells = assay: MTT cytotoxicity assay, normal NIH 3T3; type: cell-based, mouse; conditions: Mus musculus, NIH3T3, 48 h, read-out: IC50 toward NIH 3T3
Text: as §1, §2

SGC-7901 cells [2] = assay: Mitochondrial membrane potential assay with JC-1; type: cell-based, human; conditions: substance alone: 4.0 µM 1, 15.0 µM 2, 15.0 µM 3, CCCP or NAC; 24 h; control 12.03
Description: The SGC-7901 cells were seeded into a 12-well plate at a density of 1.5 × 10^5 cells per well and incubated to attach at 37 °C in 5% CO2. Overnight, the cells were treated with complexes 1–3 for 24 h. CCCP was used as a positive control. Then, the cells were incubated with JC-1 for 30 min at room temperature, after which the remaining dye was washed away with PBS. The samples were then observed under the ImageXpress Micro XLS system and flow cytometry was employed to quantify the fluorescence intensity.

Row | SMILES | IC50 (A549 cells; 48 h) [µM] | IC50 (SGC-7901 cells [1]; 48 h) [µM] | IC50 (Eca-109 cells) [µM] | IC50 (BEL-7402 cells; 48 h) [µM] | IC50 (HepG2 cells; 48 h) [µM] | IC50 (HeLa cells) [µM] | IC50 (A549 cells; Homo sapiens, A549, 48 h) [µM] | IC50 (SGC-7901 cells [1]; Homo sapiens, SGC-7901, 48 h) [µM] | IC50 (BEL-7402 cells; Homo sapiens, Bel-7402, 48 h) [µM] | IC50 (HepG2 cells; Homo sapiens, HepG2, 48 h) [µM] | IC50 (NIH 3T3 cells) [µM] | IC50 (HeLa cells; Homo sapiens, HeLa) [µM] | Ratio of red/green JC-1 fluorescence intensity (R) (SGC-7901 cells [2])
1 | N.N.[Cl][Pt][Cl] [Cisplatin, reference compound] | 7.5 ± 1.3 | 3.6 ± 0.5 | 11.2 ± 0.6 | 10.8 ± 1.6 | 12.5 ± 1.5 | 7 ± 1 |  |  |  |  |  |  | 
2 | Nc1c(N)c2cccnc2c2ncccc12 [DAP, 5,6-diamino-phenanthroline] |  |  |  |  |  |  | 5 ± 0.3 | 15.8 ± 2.8 | 37.4 ± 3.2 | 4.6 ± 0.8 | 12.3 ± 0.8 | 9.2 ± 1 | 
3 | CC(=O)N[C@@H](CS)C(=O)O [NAC, N-acetylcysteine, reference compound] |  |  |  |  |  |  |  |  |  |  |  |  | 19.40
4 | Nc1c([N+](=O)[O-])c2cccnc2c2ncccc12 [NAP, 5-nitro-6-amino-phenanthroline] |  |  |  |  |  |  | 42.7 ± 2.1 | 90.9 ± 7.4 | 21.1 ± 0.8 | 56 ± 1.9 | 61.9 ± 1.9 | 45.8 ± 4 | 
5 | O=[N+]([O-])c1cc2cccnc2c2ncccc12 [NP, 5-nitrophenanthroline] |  |  |  |  |  |  | 11.1 ± 0.7 | 18.4 ± 0.1 | 23.5 ± 1.1 | 16.7 ± 0.5 | > 200 | 18.1 ± 1.7 | 
